From publication PMC12897534, “Design, synthesis, and antiproliferative activity of new 5-ethylsulfonyl-indazole-3-carbohydrazides as dual EGFR/VEGFR-2 kinases inhibitors” (Journal of Enzyme Inhibition and Medicinal Chemistry, 2025)
Several values for one entry are separate records, joined by “and”; a condition that tells them apart may be missing. Equal entries are not always repeated.

Tests used:
[1] = system: A-549 (lung) cancer cell line; experiment: Antiproliferative assay, A-549; type: cell-based, human; details: Homo sapiens, A549; read-out: Antiproliferative activity IC50 ± SEM, A-549
Description: (§1) Table 1 presents the median inhibitory concentration (IC50) and GI50 (mean IC50) for the four cancer cell lines.
(§2) Refer to Appendix A for additional information.
(§3) To explore the antiproliferative potential of compounds propidium iodide fluorescence assay was performed using different cell lines such as Panc-1 (pancreas cancer cell line) [Panc-1-CTC (RRID:CVCL_VQ69)], MCF-7 (breast cancer cell line) [MCF-7 (RRID:CVCL_0031)], HT-29 (colon cancer cell line) [HT-29 (RRID:CVCL_0320)] and A-549 (epithelial cancer cell line)[A-549 (RRID:CVCL_0023)], respectively. All cell lines were obtained from ATCC (American Type Cell Culture).
(§4) To calculate the total nuclear DNA, a fluorescent dye (propidium iodide, PI) is used which can attach to the DNA, thus offering a quick and precise technique. PI cannot pass through the cell membrane and its signal intensity can be considered as directly proportional to quantity of cellular DNA. Cells whose cell membranes are damaged or have changed permeability are counted as dead ones. The assay was performed by seeding the cells of different cell lines at a density of 3000-7500 cells/well (in 200 μl medium) in culture plates followed by incubation for 24 h at 37 °C in humidified 5% CO2 /95% air atmospheric conditions. The medium was removed; the compounds were added to the plates at 10 μM concentrations (in 0.1% DMSO) in triplicates, followed by incubation for 48 h. DMSO (0.1%) was used as control. After incubation, medium was removed followed by the addition of PI (25 μl, 50 μg/mL in water/medium) to each well of the plates. At -80 °C, the plates were allowed to freeze for 24 h, followed by thawing at 25 °C. A fluorometer (Polar-Star BMG Tech) was used to record the readings at excitation and emission wavelengths of 530 and 620 nm for each well. The percentage cytotoxicity of compounds was calculated using the following formula: […]

[2] = system: Panc-1 (pancreatic) cancer cell line; experiment: Antiproliferative assay, Panc-1; type: cell-based, human; details: Homo sapiens, PANC-1; read-out: Antiproliferative activity IC50 ± SEM, Panc-1
Description: as §1, §2, §3, §4

[3] = system: HT-29 (colon) cancer cell line; experiment: Antiproliferative assay, HT-29; type: cell-based, human; details: Homo sapiens, read-out: Antiproliferative activity IC50 ± SEM, HT-29
Description: as §1, §2, §3, §4

[4] = system: MCF-7 (breast) cancer cell line; experiment: Antiproliferative assay, MCF-7; type: cell-based, human; details: Homo sapiens, MCF7; read-out: Antiproliferative activity IC50 ± SEM, MCF-7
Description: as §1, §2, §3, §4

VEGFR-2 = VEGFR-2 (Homo sapiens, UniProt P35968); experiment: VEGFR-2 kinase inhibitory assay
Chain of VEGFR-2 (P35968 20-1356): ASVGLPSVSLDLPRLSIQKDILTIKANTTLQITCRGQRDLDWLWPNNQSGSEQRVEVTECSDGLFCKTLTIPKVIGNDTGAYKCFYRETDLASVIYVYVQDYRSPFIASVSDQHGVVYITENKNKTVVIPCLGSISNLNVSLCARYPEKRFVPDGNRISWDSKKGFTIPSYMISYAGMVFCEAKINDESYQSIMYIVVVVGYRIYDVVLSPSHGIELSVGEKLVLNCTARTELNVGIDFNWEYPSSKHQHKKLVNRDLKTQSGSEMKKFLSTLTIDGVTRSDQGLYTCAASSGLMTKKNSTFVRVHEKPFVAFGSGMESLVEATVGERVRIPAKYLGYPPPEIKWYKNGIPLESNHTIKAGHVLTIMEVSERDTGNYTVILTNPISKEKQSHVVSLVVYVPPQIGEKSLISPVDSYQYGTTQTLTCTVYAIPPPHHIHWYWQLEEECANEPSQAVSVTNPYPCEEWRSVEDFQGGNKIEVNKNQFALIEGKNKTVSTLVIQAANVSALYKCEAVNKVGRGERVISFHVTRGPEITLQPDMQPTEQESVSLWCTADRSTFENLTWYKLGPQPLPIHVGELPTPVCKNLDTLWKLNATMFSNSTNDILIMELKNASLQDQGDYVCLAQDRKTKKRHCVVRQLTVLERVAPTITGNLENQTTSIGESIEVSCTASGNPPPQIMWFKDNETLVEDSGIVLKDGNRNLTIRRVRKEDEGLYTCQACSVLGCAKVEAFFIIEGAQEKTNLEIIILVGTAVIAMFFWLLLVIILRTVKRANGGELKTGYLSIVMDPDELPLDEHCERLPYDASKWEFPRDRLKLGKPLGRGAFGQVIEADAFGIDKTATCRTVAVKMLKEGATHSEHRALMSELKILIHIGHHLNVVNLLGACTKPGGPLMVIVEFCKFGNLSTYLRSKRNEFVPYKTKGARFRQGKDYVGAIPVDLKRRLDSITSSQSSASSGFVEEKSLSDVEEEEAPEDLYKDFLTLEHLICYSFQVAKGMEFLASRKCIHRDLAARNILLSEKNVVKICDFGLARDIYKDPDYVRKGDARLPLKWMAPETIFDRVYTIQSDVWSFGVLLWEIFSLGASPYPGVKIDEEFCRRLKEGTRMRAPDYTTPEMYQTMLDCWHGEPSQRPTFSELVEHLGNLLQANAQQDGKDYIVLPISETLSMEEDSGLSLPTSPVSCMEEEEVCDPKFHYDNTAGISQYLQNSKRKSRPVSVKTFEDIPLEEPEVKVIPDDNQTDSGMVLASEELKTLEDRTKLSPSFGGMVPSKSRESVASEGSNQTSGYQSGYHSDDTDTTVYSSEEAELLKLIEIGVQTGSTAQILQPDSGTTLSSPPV
Description: Prepare all the solutions using autoclaved, deionized water and analytical grade reagents. Prepare and store all the reagents at room temperature (unless indicated otherwise). […] The assays used an ULight-labeled peptide substrate and a Europium-W1024-labeled antiphosphotyrosine antibody. The VEGFR-2 was purchased from Carna Biosciences, Inc. (New York, USA). The 384-well plates were obtained from PerkinElmer. […] Negative control: 2.5 μL/well 4×substrate/ATP mixture and 7.5 μL 1×kinase assay buffer in 384-well plate well. […] After incubation at room temperature and dark for 60 min, 5 μL 4×stop solution was added to corresponding wells to react for 5 min and then 5 μL 4×detection mix was added to the corresponding wells of a 384-well plate. The mixture was centrifugally mixed and stayed for 60 min at room temperature for color development. The plate was read using an Envision plate reader. The inhibition rate (%) = (positive well reading-compound well reading)/(positive well reading-negative well reading)×100. The corresponding IC50 values were calculated using GraphPad Prism 5.0.

[5] = Cell viability assay (MTT) on normal cell line; details: human, MCF-10A normal mammary gland epithelial cells
Description: The viability of the investigated compounds was assessed using the normal human mammary gland epithelial cell line MCF-10A. After four days of incubation on MCF-10A cells with 50 µM of each examined compound, cell viability was assessed using the MTT test[46]^,[47].
The viability of 7a–o was determined using the normal human mammary gland epithelial (MCF-10A) cell line^46,[47].
MTT assay was performed to investigate the effect of the synthesized compounds on mammary epithelial cells (MCF-10A). The cells were propagated in medium consisting of Ham's F-12 medium/ Dulbecco's modified Eagle's medium (DMEM) (1:1) supplemented with 10% foetal calf serum (GIBCO, UK), 2 mM glutamine, insulin (10 μg/mL), hydrocortisone (500 ng/mL) and epidermal growth factor (20 ng/mL). Trypsin ethylenediamine tetra acetic acid (EDTA) was used to passage the cells after every 2-3 days. 96-well flat-bottomed cell culture plates were used to seed the cells at a density of 10^4 cells mL^-1. The medium was aspirated from all the wells of culture plates after 24 h followed by the addition of synthesized compounds (in 200 μL medium to yield a final concentration of 0.1% (v/v) dimethyl sulfoxide) into individual wells of the plates. Four wells were designated to a single compound. The plates were allowed to incubate at 37°C for 96 h. Afterwards, the medium was aspirated and 3-[4,5-dimethylthiazol-2-yl]-2,5-diphenyltetrazolium bromide (MTT) (0.4 mg/mL) in medium was added to each well and subsequently incubated for 3 h. The medium was aspirated and 150 μL dimethyl sulfoxide (DMSO) was added to each well. The plates were vortexed followed by the measurement of absorbance at 540 nm on a microplate reader.

EGFR = EGFR (Homo sapiens, UniProt P00533); experiment: EGFR-TK inhibitory assay; details: EGFR inhibition IC50 ± SEM
Chain of EGFR (P00533 669-1210): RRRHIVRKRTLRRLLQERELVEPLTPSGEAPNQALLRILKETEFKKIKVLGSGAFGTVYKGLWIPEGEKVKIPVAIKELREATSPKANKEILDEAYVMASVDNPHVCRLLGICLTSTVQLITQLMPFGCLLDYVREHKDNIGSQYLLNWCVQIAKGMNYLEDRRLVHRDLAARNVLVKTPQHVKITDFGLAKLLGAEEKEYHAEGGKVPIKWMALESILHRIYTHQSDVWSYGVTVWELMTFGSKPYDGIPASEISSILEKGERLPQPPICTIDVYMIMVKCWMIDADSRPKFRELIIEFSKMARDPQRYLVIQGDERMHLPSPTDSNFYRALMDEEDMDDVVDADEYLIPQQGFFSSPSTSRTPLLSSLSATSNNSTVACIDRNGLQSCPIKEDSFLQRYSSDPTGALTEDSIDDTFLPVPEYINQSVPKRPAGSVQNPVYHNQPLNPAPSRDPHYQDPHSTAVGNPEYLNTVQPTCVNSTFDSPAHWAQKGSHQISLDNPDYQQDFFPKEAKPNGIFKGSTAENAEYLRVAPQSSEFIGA
Description: To record autophosphorylation level, EGFR kinase assay was carried out on the basis of DELFIA/Time-Resolved Fluorometry. […] Each compound (10 μL) was incubated with recombinant enzyme (10 μL, 5 ng for EGFR, 1:80 dilution in 100 mM HEPES) for 10 min at 25 °C, subsequent to the addition of 5X buffer (10 μL, containing 2 mM MnCl2, 100 μM Na3VO4, 20 mM HEPES and 1 mM DTT) and ATP-MgCl2 (20 μL, containing 0.1 mM ATP and 50 mM MgCl2) and incubation for 1h. The negative and positive controls were included in each plate by the incubation of enzyme either with or without ATP-MgCl2. The liquid was removed after incubation and the plates were washed thrice using a wash buffer. The Europium-tagged antiphosphotyrosine antibody (75 μL, 400 ng) was added to each well followed by incubation of 1h and then washing of the plates using buffer. […] The autophosphorylation percentage inhibition by compounds was calculated using the following equation:
The majority of signals detected by antiphosphotyrosine antibody were from EGFR because the enzyme preparation contained low impurities.

[6] = system: four cancer cell lines (A-549, MCF-7, Panc-1, HT-29); experiment: Antiproliferative assay, mean over the four cancer cell lines (GI50); type: cell-based, human; details: for IC50: Homo sapiens, mean IC50 of A-549, MCF-7, Panc-1, HT-29
Excerpt: as §1, §2
All cell lines were obtained from ATCC (American Type Cell Culture). […]

SMILES	IC50 [1]	IC50 [2]	IC50 [3]	IC50 [4]	IC50 (VEGFR-2)	viability at 96 h, 50 µM [5]	IC50 (EGFR)	IC50 [6]	Fold less potent than 7j (GI50) ([6]; GI50 ratio to 7j)	Fold less potent than 7 g (GI50) ([6]; GI50 ratio to 7 g)	Fold less potent than 7i (GI50) ([6]; GI50 ratio to 7i)	Fold less potent than 7 l (GI50) ([6]; GI50 ratio to 7 l)
C#Cc1cccc(Nc2ncnc3cc(OCCOC)c(OCCOC)cc23)c1 [Erlotinib, reference compound]	30 ± 3 nM	30 ± 3 nM	30 ± 3 nM	40 ± 3 nM	–	–	–	–	–	–	–	–
CCS(=O)(=O)c1ccc2[nH]nc(C(=O)N/N=C/c3ccc(OC)c(O)c3)c2c1 [Compound 7g, (E)-5-(ethylsulfonyl)-N′-(3-hydroxy-4-methoxybenzylidene)-1H-indazole-3-carbohydrazide]	35 ± 2 nM	36 ± 2 nM	36 ± 2 nM	38 ± 2 nM	39 ± 2 nM	91%	81 nM and 83 nM	36 nM	–	–	–	–
CCS(=O)(=O)c1ccc2[nH]nc(C(=O)N/N=C/c3nccs3)c2c1 [Compound 7e, (E)-5-(ethylsulfonyl)-N′-(thiazol-2-ylmethylene)-1H-indazole-3-carbohydrazide]	58 ± 4 nM	60 ± 5 nM	60 ± 5 nM	61 ± 5 nM	–	94%	–	60 nM	2.3 fold	–	–	–
CCS(=O)(=O)c1ccc2[nH]nc(C(=O)N/N=C/c3cccnc3)c2c1 [Compound 7b, (E)-5-(ethylsulfonyl)-N′-(pyridin-3-ylmethylene)-1H-indazole-3-carbohydrazide]	47 ± 3 nM	48 ± 3 nM	48 ± 3 nM	50 ± 4 nM	–	92%	–	48 nM	–	–	–	–
CCS(=O)(=O)c1ccc2[nH]nc(C(=O)N/N=C/C3CC3)c2c1 [Compound 7m, (E)-N′-(cyclopropylmethylene)-5-(ethylsulfonyl)-1H-indazole-3-carbohydrazide]	49 ± 3 nM	50 ± 4 nM	50 ± 4 nM	52 ± 4 nM	–	94%	–	50 nM	–	–	–	–
CCS(=O)(=O)c1ccc2[nH]nc(C(=O)N/N=C/c3ccc(O)cc3)c2c1 [Compound 7i, (E)-5-(ethylsulfonyl)-N′-(4-hydroxybenzylidene)-1H-indazole-3-carbohydrazide]	31 ± 2 nM	32 ± 2 nM	32 ± 2 nM	34 ± 2 nM	36 ± 2 nM	92%	83 nM and 81 nM	32 nM	–	–	–	–
CCS(=O)(=O)c1ccc2[nH]nc(C(=O)N/N=C/c3ccc4c(cnn4C)c3)c2c1 [Compound 7c, (E)-5-(ethylsulfonyl)-N′-((1-methyl-1H-indazol-5-yl)methylene)-1H-indazole-3-carbohydrazide]	56 ± 4 nM	58 ± 4 nM	58 ± 4 nM	59 ± 4 nM	–	91%	–	58 nM	–	–	–	–
CCS(=O)(=O)c1ccc2[nH]nc(C(=O)N/N=C/C3CCCC3)c2c1 [Compound 7n, (E)-N′-(cyclopentylmethylene)-5-(ethylsulfonyl)-1H-indazole-3-carbohydrazide]	63 ± 5 nM	64 ± 5 nM	64 ± 5 nM	66 ± 5 nM	–	90%	–	64 nM	–	–	–	–
CCS(=O)(=O)c1ccc2[nH]nc(C(=O)N/N=C/c3ccc4c(ccn4C)c3)c2c1 [Compound 7f, (E)-5-(ethylsulfonyl)-N′-((1-methyl-1H-indol-5-yl)methylene)-1H-indazole-3-carbohydrazide]	71 ± 6 nM	73 ± 6 nM	72 ± 6 nM	75 ± 6 nM	–	92%	–	73 nM	–	–	–	–
CCS(=O)(=O)c1ccc2[nH]nc(C(=O)N/N=C/c3ccc(C#N)cc3)c2c1 [Compound 7a, (E)-N′-(4-Cyanobenzylidene)-5-(ethylsulfonyl)-1H-indazole-3-carbohydrazide]	77 ± 6 nM	77 ± 6 nM	78 ± 6 nM	79 ± 6 nM	–	94%	–	78 nM	–	2.1 fold	2.4 fold	1.9 fold
CCS(=O)(=O)c1ccc2[nH]nc(C(=O)N/N=C/c3ccc4ncccc4c3)c2c1 [Compound 7d, (E)-5-(ethylsulfonyl)-N′-(quinolin-6-ylmethylene)-1H-indazole-3-carbohydrazide]	53 ± 4 nM	54 ± 4 nM	54 ± 4 nM	55 ± 4 nM	–	92%	–	54 nM	–	–	–	–
CCS(=O)(=O)c1ccc2[nH]nc(C(=O)N/N=C/c3cncnc3)c2c1 [Compound 7h, (E)-5-(ethylsulfonyl)-N′-(pyrimidin-5-ylmethylene)-1H-indazole-3-carbohydrazide]	67 ± 5 nM	68 ± 5 nM	68 ± 5 nM	70 ± 6 nM	–	93%	–	68 nM	–	–	–	–
